In patent publication US12509474B2, “Inhibitors of complement factors and uses thereof” (Annexon, Inc., priority 2020, dated 2025):
Structures can show the parent of a compound that is named as a salt.

Target: T1, human C1s protein (Homo sapiens, UniProt P09871)
T1 construct: A104
T1 sequence (P09871 16-688): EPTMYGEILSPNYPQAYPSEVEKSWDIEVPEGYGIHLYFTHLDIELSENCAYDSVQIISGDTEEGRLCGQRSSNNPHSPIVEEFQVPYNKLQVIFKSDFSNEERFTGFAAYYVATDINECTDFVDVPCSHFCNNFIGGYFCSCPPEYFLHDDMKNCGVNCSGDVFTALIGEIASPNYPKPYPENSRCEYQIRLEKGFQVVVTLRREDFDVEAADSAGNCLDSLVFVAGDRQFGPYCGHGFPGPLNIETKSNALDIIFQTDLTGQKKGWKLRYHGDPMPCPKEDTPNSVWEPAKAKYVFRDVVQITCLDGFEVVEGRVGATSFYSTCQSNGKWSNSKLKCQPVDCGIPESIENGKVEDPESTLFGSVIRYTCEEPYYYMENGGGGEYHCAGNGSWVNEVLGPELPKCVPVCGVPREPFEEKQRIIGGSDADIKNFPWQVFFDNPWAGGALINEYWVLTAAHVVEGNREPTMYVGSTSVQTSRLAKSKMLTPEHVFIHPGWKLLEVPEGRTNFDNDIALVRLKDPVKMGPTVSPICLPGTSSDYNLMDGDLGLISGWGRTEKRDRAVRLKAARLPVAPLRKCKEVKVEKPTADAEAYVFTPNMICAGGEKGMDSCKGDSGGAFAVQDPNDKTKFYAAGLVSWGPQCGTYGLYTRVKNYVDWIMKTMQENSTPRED
Assay: C1s enzymatic assay (hydrolysis of YLGR-Rh110-dPro)
Assay type: biochemical
Settings: substrate YLGR-Rh110-dPro 20 μM, 15 min pre-incubation, 60 min RT, fluorescence; for IC50: read-out: hC1s pIC50 (converted)
Method: Compound Testing in the C1s Enzymatic Assay
The enzyme cleaves the substrate with the release of Rh110 which is highly fluorescent. C1s inhibitors prevent the hydrolysis of the substrate thus resulting in a decrease of the signal.
On the day of the experiment 0.1 mg/mL BSA (Sigma, B4287) is added fresh to the buffer. The test item stock solutions are serially diluted 1:3 or 1:4 or 1:5 with DMSO, 11-point curves, in a 384-well compound plate. Nafamostat concentration curve is always included in the assay plate as a reference control.
The high controls are prepared dispensing in 0.25 μL DMSO in column 23, rows AH or AP and low controls with 0.25 μL of 0.1 M Nafamostat. […] The YLGR-Rh110-dPro substrate is prepared as 2× of the final assay concentration of 20 μM. 1/well of 2× enzyme solution is dispensed and pre-incubated for 15 min with the compounds. The enzymatic reaction is then started with 5 μL/well of the 2× substrate solution.

IC50 | Molecule | hC1s pIC50
0.813 nM | COc1cc(OC(F)(F)F)c(B(O)O)cc1-c1ccc2c(N)nnc(C)c2c1 [Example 44, [5-(1-amino-4-methylphthalazin-6-yl)-4-methoxy-2-(trifluoromethoxy)phenyl]boronic Acid] | –
0.776 nM | Nc1cnnc2cc(-c3cc(B(O)O)ccc3OCCC3CCOC3)ccc12 (centres unmarked) [Example 112, [3-(4-aminocinnolin-7-yl)-4-[2-(oxolan-3-yl)ethoxy]phenyl]boronic Acid] | –
2.19 nM | Cc1nnc(N)c2ccc(-c3ccc4c(c3)B(O)OCC4)cc12 [Example 26, Formic Acid Salt] | –
1.91 nM | CC1Cc2ccc(-c3ccc4c(N)cnnc4c3)cc2B(O)O1 (single isomer, unassigned) [Example 94] | –
– | 7-(3-cyclopropyl-1-hydroxy-3,4-dihydro-2,1-benzoxazonin-7-yl)cinnolin-4-amine [Example 147] | 8.38
2.69 nM | COc1cc(C(F)F)c(B(O)O)cc1-c1ccc2c(N)nnc(C)c2c1 [Example 35, [5-(1-amino-4-methylphthalazin-6-yl)-2-(difluoromethyl)-4-methoxyphenyl]boronic Acid] | –
1.05 nM | CC1(C)COC(COc2ccc(B(O)O)cc2-c2ccc3c(N)cnnc3c2)C1 (centres unmarked) [Example 114, [3-(4-aminocinnolin-7-yl)-4-[(4,4-dimethyloxolane-2-yl)methoxy]phenyl]boronic Acid] | –
1.7 nM | COc1cc(F)c(B(O)O)cc1-c1ccc2c(N)nnc(C)c2c1 [Example 25, [5-(1-amino-4-methylphthalazin-6-yl)-2-fluoro-4-methoxyphenyl]boronic Acid] | –
0.794 nM | Nc1cnnc2cc(-c3cc(B(O)O)ccc3OCCC3CC3)ccc12 [Example 115, [3-(4-aminocinnolin-7-yl)-4-(2-cyclopropylethoxy)phenyl]boronic Acid] | –
2.09 nM | COc1cc(C)c(B(O)O)cc1-c1ccc2c(N)cnnc2c1 [Example 134, [5-(4-aminocinnolin-7-yl)-4-methoxy-2-methylphenyl]boronic Acid Formic Acid Salt] | –
0.55 nM | Nc1cnnc2cc(-c3cc(B(O)O)cc4c3OC(F)(F)O4)ccc12 [Example 128, [7-(4-aminocinnolin-7-yl)-2,2-difluoro-2H-1,3-benzodioxol-5-yl]boronic Acid] | –
1.05 nM | CC(F)(F)Oc1ccc(B(O)O)cc1-c1ccc2c(N)cnnc2c1 [Example 163, [3-(4-aminocinnolin-7-yl)-4-(1,1-difluoroethoxy)phenyl]boronic Acid Formic Acid Salt] | –
513 nM | CC(C)c1nnc(N)c2ccc(-c3cccc(B(O)O)c3)cc12 [Example 9, [3-(1-amino-4-propan-2-ylphthalazin-6-yl)phenyl]boronic Acid Hydrochloric Acid Salt] | –
7.41 nM | Nc1cnnc2cc(-c3cc(B(O)O)ccc3N3CCNS3(=O)=O)ccc12 [Example 165, [3-(4-aminocinnolin-7-yl)-4-(1,1-dioxo-1,2,5-thiadiazolidin-2-yl)phenyl]boronic Acid] | –
0.562 nM | COc1c(C)cc(-c2ccc3c(N)nnc(C)c3c2)cc1B(O)O [Example 45, [5-(1-amino-4-methylphthalazin-6-yl)-2-methoxy-3-methylphenyl]boronic Acid] | –
> 25100 nM | COc1ccc(B(O)O)cc1-c1ccc2c(O)nncc2c1 [Example 160, [3-(1-hydroxyphthalazin-6-yl)-4-methoxyphenyl]boronic Acid] | –
1.38 nM | COc1c(C)cc(B(O)O)cc1-c1ccc2c(N)nnc(C)c2c1 [Example 42, [3-(1-amino-4-methylphthalazin-6-yl)-4-methoxy-5-methylphenyl]boronic Acid Formic Acid Salt] | –
1.91 nM | Cc1nnc(N)c2ccc(-c3cc(B(O)O)cc(F)c3C#N)cc12 [Example 36, [3-(1-amino-4-methylphthalazin-6-yl)-4-cyano-5-fluorophenyl]boronic Acid Formic Acid Salt] | –
66.1 nM | COc1ccc(B(O)O)cc1-c1cnc2c(N)cnnc2c1 [Example 144, (3-{4-aminopyrido[3,2-C]pyridazin-7-yl}-4-methoxyphenyl)boronic Acid] | –

IC50 | Molecule | hC1s pIC50
75.9 nM | Cc1nnc(N)c2ccc(-c3cc(P(C)(C)=O)cc(B(O)O)c3F)cc12 [Example 47, [3-(1-amino-4-methylphthalazin-6-yl)-5-dimethylphosphoryl-2-fluorophenyl]boronic Acid Formic Acid Salt] | –
6.76 nM | Cc1nnc(N)c2ccc(-c3cc(B(O)O)ccc3NC(=O)CCC(C)C)cc12 [Example 61, [3-(1-amino-4-methylphthalazin-6-yl)-4-(4-methylpentanoylamino)phenyl]boronic Acid Formic Acid Salt] | –
1.95 nM | Cc1nnc(N)c2ccc(-c3ccc(C(F)(F)F)c(B(O)O)c3)cc12 [Example 74, [5-(1-amino-4-methylphthalazin-6-yl)-2-(trifluoromethyl)phenyl]boronic Acid] | –
6.92 nM | Cc1ccc(B(O)O)cc1-c1ccc2c(N)nnc(C)c2c1 [Example 10, [3-(1-amino-4-methylphthalazin-6-yl)-4-methylphenyl]boronic Acid Formic Acid Salt] | –
1.78 nM | COc1cc(C)c(B(O)O)cc1-c1ccc2c(N)nnc(C)c2c1 [Example 28, [5-(1-amino-4-methylphthalazin-6-yl)-4-methoxy-2-methylphenyl]boronic Acid Formic Acid Salt] | –
17.4 nM | COc1ccc(B(O)O)cc1-c1cc2nncc(N)c2cc1F [Example 92, [3-(4-amino-6-fluorocinnoline-7-yl)-4-methoxyphenyl]boronic Acid] | –
11.7 nM | Nc1cnnc2cc(-c3c(OC(F)F)ccc(B(O)O)c3F)ccc12 [Example 97, [3-(4-aminocinnolin-7-yl)-4-(difluoromethoxy)-2-fluorophenyl]boronic Acid] | –
0.776 nM | Nc1cnnc2cc(-c3cc(B(O)O)cc4ccoc34)ccc12 [Example 100, [7-(4-aminocinnolin-7-yl)-1-benzofuran-5-yl]boronic Acid] | –
1.17 nM | Cc1nc2cc(B(O)O)cc(-c3ccc4c(N)cnnc4c3)c2o1 [Example 122, [7-(4-aminocinnolin-7-yl)-2-methyl-1,3-benzoxazol-5-yl]boronic Acid Formic Acid Salt] | –
871 nM | COc1ccc(B(O)O)cc1-c1ccc2c(N)ccnc2c1 [Example 109, [3-(4-aminoquinolin-7-yl)-4-methoxyphenyl]boronic Acid] | –
3.24 nM | Cc1nnc(N)c2ccc(-c3cc(B(O)O)ccc3NC(=O)CC(C)C)cc12 [Example 59, [3-(1-amino-4-methylphthalazin-6-yl)-4-(3-methylbutanoylamino)phenyl]boronic Acid Formic Acid Salt] | –
0.617 nM | Cc1nnc(N)c2ccc(-c3cc(B(O)O)ccc3OC(F)F)cc12 [Example 131, [3-(1-amino-4-methylphthalazin-6-yl)-4-(difluoromethoxy)phenyl]boronic Acid Formic Acid Salt] | –
57.5 nM | CC(C)CCC(=O)Nc1ccc(B(O)O)cc1-c1ccc2c(N)cnnc2c1 [Example 65, [3-(4-aminocinnolin-7-yl)-4-(4-methylpentanamido)phenyl]boronic Acid Formic Acid Salt] | –
11.2 nM | CC(C)NC(=O)c1ccc(B(O)O)cc1-c1ccc2c(N)cnnc2c1 [Example 120, [3-(4-aminocinnolin-7-yl)-4-(propan-2-ylcarbamoyl)phenyl]boronic Acid Formic Acid Salt] | –
0.589 nM | COc1ccc(B(O)O)cc1-c1ccc2c(N)cnnc2c1 [Example 5, [3-(4-aminocinnolin-7-yl)-4-methoxyphenyl]boronic Acid] | –
0.891 nM | COc1ccc(B(O)O)cc1-c1ccc2c(N)nnc(C)c2c1 [Example 7, [3-(1-amino-4-methylphthalazin-6-yl)-4-methoxyphenyl]boronic Acid Formic Acid Salt] | –
4.68 nM | COc1cc2c(cc1-c1ccc3c(N)nnc(C)c3c1)B(O)OCC2 [Example 32, 6-(1-hydroxy-6-methoxy-3,4-dihydro-2,1-benzoxazonin-7-yl)-4-methylphthalazin-1-amine Formic Acid Salt] | –
> 25100 nM | COc1ccc(B(O)O)cc1-c1cc(OC)c2ccnnc2c1 [Example 162, [4-methoxy-3-(5-methoxycinnoline-7-yl)phenyl]boronic Acid] | –
5.89 nM | Cc1nnc(N)c2ccc(-c3ccc4c(c3)B(O)OC(=O)C4)cc12 [Example 56, Trifluoroacetic Acid Salt] | –
